Literature values, collected in paper PMC9227077, “Prediction Models for Brain Distribution of Drugs Based on Biomimetic Chromatographic Data” (Molecules, 2022).
Read-outs that look alike come from different tables or passages of the source.

Legend:
[1] = system: human serum albumin; design: method as in ref 45 (a number printed in a supplementary file, which may have a reference list of its own: not looked up in the article's list); details: cited from earlier work
[2] = design: method as in ref 23, 24, 27, 29, 45 (a number printed in a supplementary file, which may have a reference list of its own: not looked up in the article's list); details: 100% aqueous mobile phase, previously obtained in authors' laboratory, cited from earlier work
[3] = experimental, cited from earlier work; for logP: octanol-water partition coefficient
[4] = cited from earlier work
[5] = system: α1 acid glycoprotein; design: method as in ref 23, 24, 27, 29, 45 (a number printed in a supplementary file, which may have a reference list of its own: not looked up in the article's list); details: pH=7.4, 100% aqueous mobile phase; previously obtained in authors' laboratory; cited from earlier work
[6] = most values in rats, average if more than one value; cited from earlier work
[7] = pH=7.4, isocratic, 10% acetonitrile, available for 37 compounds, remaining calculated by equation
[8] = literature Kp,brain converted to logBB
[9] = total brain/total plasma, preferably rat studies

CC(=O)Oc1ccccc1C(=O)O [Acetylsalicylic acid]
logk10,HSA [1, 7]: 0.38 | logkw IAM ([2]; pH=5.0, PBS): -0.48 | logkw IAM ([2]; pH=7.4, PBS): -0.81 | logD ([3]; pH=5.0, octanol-water): -0.29 | logD ([3]; pH=7.4, octanol-water): -1.20 | logBB exper. [4, 8]: -0.5 | Kp,brain [4, 9]: 0.32

Nc1nc2c(ncn2COCCO)c(=O)[nH]1 [Acyclovir]
logkw IAM ([2]; pH=5.0, PBS): -1.37 | logkw IAM ([2]; pH=7.4, PBS): -1.15 | logP [3]: -1.56 | logD ([3]; pH=5.0, octanol-water): -1.56 | logD ([3]; pH=7.4, octanol-water): -1.56

Cc1c(N(C)C)c(=O)n(-c2ccccc2)n1C [Aminopyrine]
logk10,HSA [1, 7]: -0.30 | logBB exper. [4, 8]: 0.00 | Kp,brain [4, 9]: 1.00

CC(C)NCC(O)COc1ccc(CC(N)=O)cc1 (stereo not shown) [Atenolol]
logkw IAM ([2]; pH=5.0, PBS): -0.20 | logkw IAM ([2]; pH=7.4, PBS): 0.51

CN1[C@@H]2CC[C@H]1C[C@@H](OC(=O)C(CO)c1ccccc1)C2 (stereo partly shown) [Atropine]
logkw IAM ([2]; pH=7.4, PBS): 1.05

CCOc1nc2cccc(C(=O)O)c2n1Cc1ccc(-c2ccccc2-c2nnn[nH]2)cc1 [Candesartan]
logk10,HSA [1, 7]: 0.42 | logkw IAM ([2]; pH=5.0, PBS): 1.57 | logkw IAM ([2]; pH=7.4, PBS): 1.00 | logP [3]: 3.36 | logD ([3]; pH=5.0, octanol-water): 1.00 | logD ([3]; pH=7.4, octanol-water): -1.35 | logkwAGP [5]: 0.09 | logBB exper. [4, 8]: -1.4 | Kp,brain [4, 9]: 0.04

CN(C)CCCN1c2ccccc2Sc2ccc(Cl)cc21 [Chlorpromazine]
fu,brain [6]: 0.003 | logk10,HSA [1, 7]: 1.34 | logkwAGP [5]: 2.30

CN(C)CCCN1c2ccccc2CCc2ccc(Cl)cc21 [Clomipramine]
fu,brain [6]: 0.004 | logkw IAM ([2]; pH=5.0, PBS): 2.49 | logkw IAM ([2]; pH=7.4, PBS): 3.29 | logP [3]: 5.46 | logD ([3]; pH=5.0, octanol-water): 2.19 | logD ([3]; pH=7.4, octanol-water): 3.30 | logkwAGP [5]: 2.70 | logBB exper. [4, 8]: 1.34 | Kp,brain [4, 9]: 21.88

CN1C(=O)CN=C(c2ccccc2)c2cc(Cl)ccc21 [Diazepam]
logkw IAM ([2]; pH=5.0, PBS): 2.12 | logkw IAM ([2]; pH=7.4, PBS): 2.12

CN(C)CCC=C1c2ccccc2COc2ccccc21 [Doxepin]
logk10,HSA [1, 7]: 0.56 | logkw IAM ([2]; pH=5.0, PBS): 1.98 | logkw IAM ([2]; pH=7.4, PBS): 2.50 | logP [3]: 3.96 | logD ([3]; pH=5.0, octanol-water): 0.86 | logD ([3]; pH=7.4, octanol-water): 2.22 | logkwAGP [5]: 2.30

CN1C(=O)CN=C(c2ccccc2F)c2cc([N+](=O)[O-])ccc21 [Flunitrazepam]
logk10,HSA [1]: 0.26 | logkw IAM ([2]; pH=7.4, PBS): 1.79 | logkwAGP [5]: 1.44

CNCCC(Oc1ccc(C(F)(F)F)cc1)c1ccccc1 (stereo not shown) [Fluoxetine]
logkw IAM ([2]; pH=5.0, PBS): 2.46 | logkw IAM ([2]; pH=7.4, PBS): 2.98 | logP [3]: 4.26 | logkwAGP [5]: 2.10 | logBB exper. [4, 8]: 0.72 | Kp,brain [4, 9]: 5.25

O=C(CCCN1CCC(O)(c2ccc(Cl)cc2)CC1)c1ccc(F)cc1 [Haloperidol]
fu,brain [6]: 0.008 | logk10,HSA [1, 7]: 0.77 | logkw IAM ([2]; pH=5.0, PBS): 1.86 | logkw IAM ([2]; pH=7.4, PBS): 2.65

OCCOCCN1CCN(C(c2ccccc2)c2ccc(Cl)cc2)CC1 (stereo not shown) [Hydroxyzine]
fu,brain [6]: 0.013 | logk10,HSA [1, 7]: 0.60 | logkw IAM ([2]; pH=5.0, PBS): 2.23 | logkw IAM ([2]; pH=7.4, PBS): 3.01 | logD ([3]; pH=5.0, octanol-water): 0.73 | logD ([3]; pH=7.4, octanol-water): 3.01 | logBB exper. [4, 8]: 0.39 | Kp,brain [4, 9]: 2.45

CN(C)CCCN1c2ccccc2CCc2ccccc21 [Imipramine]
fu,brain [6]: 0.035 | logkw IAM ([2]; pH=5.0, PBS): 2.05 | logkw IAM ([2]; pH=7.4, PBS): 2.73 | logBB exper. [4, 8]: 0.83 | Kp,brain [4, 9]: 6.76

O=C1Nc2ccc(Cl)cc2C(c2ccccc2Cl)=NC1O (stereo not shown) [Lorazepam]
logk10,HSA [1, 7]: 0.67 | logkw IAM ([2]; pH=5.0, PBS): 2.01 | logkw IAM ([2]; pH=7.4, PBS): 2.03 | logkwAGP [5]: 1.33 | logBB exper. [4, 8]: 0.47 | Kp,brain [4, 9]: 2.95

CNCCCC12CCC(c3ccccc31)c1ccccc12 [Maprotiline]
fu,brain [6]: 0.006 | logk10,HSA [1, 7]: 0.80 | logkw IAM ([2]; pH=5.0, PBS): 2.25 | logkw IAM ([2]; pH=7.4, PBS): 2.81 | logP [3]: 4.14 | logD ([3]; pH=5.0, octanol-water): 1.19 | logD ([3]; pH=7.4, octanol-water): 1.44 | logBB exper. [4, 8]: 1.76 | Kp,brain [4, 9]: 57.54

CN1CC[C@]23c4c5ccc(O)c4O[C@H]2[C@@H](O)C=C[C@H]3[C@H]1C5 [Morphine]
logkw IAM ([2]; pH=5.0, PBS): 0.10 | logkw IAM ([2]; pH=7.4, PBS): 0.63

COc1ccc2cc([C@H](C)C(=O)O)ccc2c1 [Naproxen]
logkw IAM ([2]; pH=5.0, PBS): 1.71 | logkw IAM ([2]; pH=7.4, PBS): 0.98

CNCCC=C1c2ccccc2CCc2ccccc21 [Nortriptyline]
fu,brain [6]: 0.006 | logk10,HSA [1, 7]: 0.82 | logkw IAM ([2]; pH=5.0, PBS): 2.12 | logkw IAM ([2]; pH=7.4, PBS): 2.83 | logP [3]: 4.04 | logD ([3]; pH=5.0, octanol-water): 1.16 | logD ([3]; pH=7.4, octanol-water): 1.70 | logkwAGP [5]: 2.30

CC(C)=CCN1CCC2(C)c3cc(O)ccc3CC1C2C (stereo not shown) [Pentazocine]
logk10,HSA [1, 7]: 1.09 | logkw IAM ([2]; pH=5.0, PBS): 1.70 | logkw IAM ([2]; pH=7.4, PBS): 2.06 | logP [3]: 4.64 | logD ([3]; pH=5.0, octanol-water): 1.24 | logD ([3]; pH=7.4, octanol-water): 4.02 | logBB exper. [4, 8]: 0.545 | Kp,brain [4, 9]: 3.51

CCCC(C)C1(CC)C(=O)NC(=O)NC1=O (stereo not shown) [Pentobarbital]
logk10,HSA [1, 7]: -0.04 | logkw IAM ([2]; pH=5.0, PBS): 1.40 | logkw IAM ([2]; pH=7.4, PBS): 1.29 | logP [3]: 2.07 | logD ([3]; pH=5.0, octanol-water): 1.88 | logD ([3]; pH=7.4, octanol-water): 1.95 | logkwAGP [5]: 1.35 | Kp,brain ([4]; rat, in vivo): 1.32 | logBB exper. ([4]; rat, in vivo): 0.12

CCC1(c2ccccc2)C(=O)NC(=O)NC1=O [Phenobarbital]
logk10,HSA [1, 7]: -0.22 | logkw IAM ([2]; pH=5.0, PBS): 0.71 | logkw IAM ([2]; pH=7.4, PBS): 0.28 | logD ([3]; pH=5.0, octanol-water): 1.47 | logD ([3]; pH=7.4, octanol-water): 1.14 | logkwAGP [5]: 1.10 | Kp,brain ([4]; rat, in vivo): 0.72 | logBB exper. ([4]; rat, in vivo): -0.14

CC(C)NCC(O)COc1cccc2[nH]ccc12 (stereo not shown) [Pindolol]
fu,brain [6]: 0.400 | logk10,HSA [1, 7]: -0.03 | logD ([3]; pH=5.0, octanol-water): -1.15 | logD ([3]; pH=7.4, octanol-water): -0.21 | logBB exper. [4, 8]: -0.14 | Kp,brain [4, 9]: 0.72

NC(=O)CN1CCCC1=O [Piracetam]
logk10,HSA [1, 7]: -1.32 | logD ([3]; pH=5.0, octanol-water): -1.54 | logD ([3]; pH=7.4, octanol-water): -1.54 | Kp,brain [4, 9]: 1.00

CC(=O)[C@H]1CC[C@H]2[C@@H]3CCC4=CC(=O)CC[C@]4(C)[C@H]3CC[C@]12C [Progesterone]
fu,brain [6]: 0.046 | logk10,HSA [1, 7]: 0.84 | logkw IAM ([2]; pH=7.4, PBS): 3.06 | logD ([3]; pH=5.0, octanol-water): 3.89 | logD ([3]; pH=7.4, octanol-water): 3.48

CC(CN1c2ccccc2Sc2ccccc21)N(C)C (stereo not shown) [Promethazine]
logk10,HSA [1, 7]: 1.05 | logkw IAM ([2]; pH=5.0, PBS): 2.18 | logkw IAM ([2]; pH=7.4, PBS): 2.78 | logD ([3]; pH=5.0, octanol-water): 1.59 | logD ([3]; pH=7.4, octanol-water): 2.79 | logkwAGP [5]: 2.50 | logBB exper. [4, 8]: 0.824 | Kp,brain [4, 9]: 6.67

CN1[C@@H]2C[C@@H](OC(=O)[C@H](CO)c3ccccc3)C[C@H]1[C@@H]1O[C@@H]12 [Scopolamine]
logkw IAM ([2]; pH=5.0, PBS): 0.73 | logkw IAM ([2]; pH=7.4, PBS): 1.15

CN1C(=O)C(O)N=C(c2ccccc2)c2cc(Cl)ccc21 (stereo not shown) [Temazapam]
logk10,HSA [1, 7]: 0.28 | logkw IAM ([2]; pH=5.0, PBS): 1.76 | logkw IAM ([2]; pH=7.4, PBS): 1.76

Cn1c(=O)c2[nH]cnc2n(C)c1=O [Theophylline]
logkw IAM ([2]; pH=5.0, PBS): -0.26 | logkw IAM ([2]; pH=7.4, PBS): -0.08

O=c1n(CCCN2CCN(c3cccc(Cl)c3)CC2)nc2ccccn12 [Trazodone]
fu,brain [6]: 0.071 | logD ([3]; pH=5.0, octanol-water): 2.89 | logD ([3]; pH=7.4, octanol-water): 3.70 | logkwAGP [5]: 2.36
